In US20220175818A1, “Inhibition of Monoamine Oxidase Subtype A (MAOA) Mitigates Cardiovascular Calcification” (The Brigham and Women's Hospital, Inc., priority 2019, published 2022):

System: VICs
Experiment: Alizarin red calcification assay of VICs grown in osteogenic media with MAOA inhibitors
Type: cell-based, human
Conditions: VICs grown in OM, 21 days, inhibitor 10 μM, PBS control, n=3, FIG. 7E
Description: Representative images, n=3 donors.
Osteogenic, chondrogenic, and adipogenic differentiation assays were conducted for samples of protein, RNA, and media collected at 0, 1, 2, and 3 weeks after changing media from growth media to specialized media. Alizarin Red. alizarin red (AR) 2% (Thermo Fisher Scientific), Alcian blue (AB) 1%, and oil red O (ORO) (Abcam) were used for osteogenic, chondrogenic, and adipogenic assays respectively. Cells plated in 48 or 96 well plates were washed with PBS and fixed for 15 minutes at room temperature with 10% formalin for AR and AB and 4% PFA for ORO. After washing with Milli-Q water, stains were added. […] The incubation times were 20 minutes (AR), 1 hour (AB), and 15 minutes in room temperature (ORO). Washes with Milli-Q water followed for the AR (3×) and AB (4×) stains. […] Pictures were taken using an iPhone7 (Apple) and the amount of dye released was quantified by spectrophotometry at 550 nm.

SMILES	calcification (Alizarin red staining)
Cc1ccc2c(c1)c1c3n2CCNC3CCC1 (centres unmarked) [pirindole]	reduction of calcification
O=C(NCCN1CCOCC1)c1ccc(Cl)cc1 [moclobemide, Moclobemide]	reduction of calcification
